Source: patent publication US20080108641A1, “Compounds for treating inflammatory disorders, demyelinating disdorders and cancers” (priority 2006, published 2008)
Read-outs that look alike come from different tables or passages of the source.

Key:
[1] = test system: Experimental Autoimmune Encephalomyelitis (EAE); conditions: for mean clinical severity score: 20 mg/kg i.p. once a week
[2] = human dose of 540 mg/m^2 body surface area (as free base); cited from earlier work
[3] = test system: Experimental Autoimmune Encephalomyelitis (EAE); assay: Acute stage Experimental Autoimmune Encephalomyelitis (EAE) model, daily dosing
Method: Accordingly, three randomized cohorts of guinea pigs with EAE induced by the method of Example 2, were treated, respectively, with 6 mg/kg of Symadex™ (full salt hydrate) and 0.35 mg/kg of mitoxantrone. Animals were treated daily, by intraperitoneal injection, for 15 days, starting on day 7 post immunization. Controls were treated with vehicle. We reasoned that 15 consecutive, 6 mg/kg doses of Symadex™ would represent a level of drug exposure that would be commensurate with the “20 mg/kg every 72 hours” regimen in Example 4 and consistent with a mid level exposure between the 20 mg/kg and the 40 mg/kg schedule given weekly, in Example 2. The mitoxantrone dose was selected to reflect a typical high dose given to rats or mice by daily dosing in the prior art, but allometrically scaled to the guinea pig.

[4] = test system: arthritis induced by monoclonal antibodies raised against type II collagen, plus LPS; assay: Collagen monoclonal antibody (mABs) + LPS induced arthritis, hind paw volume; format: in vivo, BALB/c strain mice; conditions: for inhibition of increase in hind paw volume: 30 mg/kg orally x3
Method: Groups of 3 BALB/c strain mice, 6-7 weeks of age, were used for the induction of arthritis by monoclonal antibodies (mABs) raised against type II collagen, plus lipopolysaccharide (LPS). A combination of 4 different mABs (D8, F10, DI-2G and A2) totaling 4 mg/mouse was administered to the animal intravenously on day 0, followed by intravenous challenge with […] of LPS 72 hours later (day 3). From day 3, test substance and vehicle were each administered orally once daily for 3 consecutive days. For each animal, volumes of both hind paws were measured using a plethysmometer with water cell (12 mm diameter) on Days 0, 5, 7, 10, 14 and 17.
C0 (Cn): volume of day 0 (day n) in vehicle control
T0 (Tn): volume of day 0 (day n) in test compound-treated group
Reduction of edema in the hind paws by 30% or more is considered significant.

IL-10 = assay: Mediator release, IL-10 (Con A-stimulated PBML, sandwich ELISA); format: cell-based; conditions: Homo sapiens
Method: In this experiment, test compound and/or vehicle were preincubated with human peripheral blood mononuclear leukocyte (PBML, 1×10^6/ml) in RPMI buffer pH 7.4 for 2 hours. Concanavalin A (Con A, 20 μg/ml) was then added to stimulate the cells overnight in 5% CO2 at 37° C. IL-4 and IL-10 cytokine levels in the conditioned medium were then quantified using a sandwich ELISA kit. Compounds were screened at 10, 1, 0.1, 0.01 and 0.001 μM.

[5] = 20 mg/kg i.p. weekly for 4, 6 and 8 weeks

Which “mean clinical severity score” value ([1]; 4-week treatment cycle (n=14), starting mean 1.3, p 0.0001 vs control) does the source give for `CCN(CC)CCNc1ccc2ncn3c4ccc(O)cc4c(=O)c1c23` [Symadex™] here?
The value was 0.7.

What about the “mean clinical severity score” value ([1]; 6 week treatment (n=3), control 1.3, p 0.009) of the same molecule?
The value was 0.3.

What about the “B-cell counts vs controls” value [1, 5] of the same molecule?
The value was “no significant deviation from controls”.

What about the “CD4 and CD8 T-cell populations” value [1, 5] of the same molecule?
Its value is “Neither are CD4 or CD8 T-cell populations modulated”.

What about the “total T-cell counts vs vehicle control” value [1, 5] of the same molecule?
Its value is “no difference”.

What about the “disease course after drug withdrawal” value ([1]; 20 mg/kg i.p. weekly for 4 weeks, then 4 weeks vehicle, p 0.002 vs control) of the same molecule?
Its value is “remained in stable disease”.

And the “clinical scores / disease progression” value ([1]; 20 mg/kg i.p., 2 doses 72 hours apart, from 30 days post immunization (n=3), p 0.002 vs control)?
Its value is “reversed the progression of disease and restored baseline clinical scores”.

What about the “clinical scores at end of treatment course” value ([1]; 20 mg/kg i.p., 8 consecutive weekly doses (n=3), p 0.0006 vs control) of the same molecule?
The value was “converges on baseline”.

What about the “time to clinical recovery from the start of treatment” value ([1]; 40 mg/kg i.p. once a week for 4 weeks) of the same molecule?
Its value is ≤ 2 weeks.

And the “clinical progress and pathological findings vs vehicle control” value ([1]; 20 and 40 mg/kg i.p. once a week for 4 weeks from day 40, p 0.004 (20 mg/kg), 0.001 (40 mg/kg))?
Its value is “profound and substantial change”.

And the “inflammatory cells in chronic demyelinated plaques” value ([1]; after prolonged treatment)?
The value was “virtually no remaining inflammatory cells”.

What about the endogenous remyelination ([1]; chronic-progressive model, after disease progression) of the same molecule?
The endogenous remyelination was “effective in permitting endogenous remyelination”.

What about the “scores for meningeal inflammation and perivascular infiltration” value ([1]; treated groups vs vehicle controls, weekly dosing for 4 weeks) of the same molecule?
Its value is “more severe in the treated groups than in vehicle controls”.

What about the “tolerability of single dose” value [2] of the same molecule?
The value was “safe and well-tolerated”.

And the “clinical score course (neurological impairment)” value ([3]; daily i.p. for 15 days from day 7 post immunization, Symadex 6 mg/kg, mitoxantrone 0.35 mg/kg)?
Its value is “initial rise in neurological impairment is arrested”.

What about the “statistical significance of therapeutic effect on clinical score vs control (Mann-Whitney rank-sum)” value ([3]; daily i.p. for 15 days, Symadex 6 mg/kg (p below 0.05), mitoxantrone 0.35 mg/kg) of the same molecule?
Its value is “reaches statistical significance”.

What about the “pathology scores: perivascular cuffing (P), myelitis (E) and demyelination (D) vs control” value ([3]; necropsy after 15 daily doses, p value<0.05 from control) of the same molecule?
The value was “reducing the perivascular cuffing (P), myelitis (E) and demyelination (D)”.

And the “increase in hind paw volume” value ([4]; day 5, 3 consecutive daily oral doses at 30 mg/kg from day 3, vehicle 42%)?
Its value is 32%.

What about the “inhibition of increase in hind paw volume” value (shortened to “inhibition of increase”) ([4]; day 10) of the same molecule?
The value was 61%.

And the “increase in hind paw volume” value ([4]; day 10, 3 consecutive daily oral doses at 30 mg/kg, vehicle 75%)?
Its value is 29%.

What about the “inhibition of increase” value ([4]; day 14) of the same molecule?
Its value is 74%.

What about the “increase in hind paw volume” value ([4]; day 14, 3 consecutive daily oral doses at 30 mg/kg, vehicle 70%) of the same molecule?
The value was 18%.

What about the “inhibition of increase” value ([4]; day 17) of the same molecule?
Its value is 59%.

What about the “increase in hind paw volume” value ([4]; day 17, 3 consecutive daily oral doses at 30 mg/kg, vehicle 47%) of the same molecule?
The value was 19%.

And the inhibition at 0.001 µM (IL-10; read-out: % inhibition of IL-10 release, 1 nM, read-out: % Growth Inhibition)?
Its inhibition at 0.001 µM is 1%.

What about the inhibition at 0.01 µM (IL-10; read-out: % inhibition of IL-10 release, 10 nM, read-out: % Growth Inhibition) of the same molecule?
The inhibition at 0.01 µM was 16%.

And the inhibition at 0.1 µM (IL-10; read-out: % inhibition of IL-10 release, 0.1 μM, read-out: % Growth Inhibition)?
Its inhibition at 0.1 µM is 16%.

What about the inhibition at 1 µM (IL-10; read-out: % inhibition of IL-10 release, 1 μM, read-out: % Growth Inhibition) of the same molecule?
The inhibition at 1 µM was 39%.

What about the inhibition at 10 µM (IL-10; read-out: % inhibition of IL-10 release, 10 μM, read-out: % Growth Inhibition) of the same molecule?
Its inhibition at 10 µM is 99%.

And the IC50 (IL-10; IL-10 release)?
The IC50 was 1200 nM.
